Entries after “also recorded” stand apart in the source; their conditions may differ.
Columns and labels:
[1] = test system: enzyme activity (lysyl hydroxylase, prolyl hydroxylase); assay: Direct inhibition of enzyme activity, mixing experiments with extracts of treated cells and controls; type: biochemical, human
Experimental: The functional significance of the nitroxide oxygen in minoxidil was evaluated with a deoxy analog. Shown in FIG. 2 is a comparison of the effects of minoxidil and deoxyminoxidil on the activities of lysyl hydroxylase and the control enzyme prolyl hydroxylase in cultured fibroblasts.

prolyl hydroxylase [2] = assay: Prolyl hydroxylase activity in extracts of treated human skin fibroblasts (Example 1, tritium-release assay); type: cell-based; details: cultured fibroblasts
Experimental: (§1) Cultures of human skin fibroblasts grown to confluence were incubated for 72 h in medium supplemented with 1% ethanol containing various concentrations of minoxidil or deoxyminoxidil as indicated. Cells were then harvested, and the enzyme activities in extracts of these cells were measured by tritium-release assays (Murad and Pinnell, J. Biol. Chem. 262:11,973 (1987)). The results are expressed as percentages of zero-concentration values.
as §1, with “with 1% acetone containing various concentrations of minoxidil sulfate,” for “deoxyminoxidil”, “tritium release” for “tritium-release”
(§2) Skin fibroblast cultures derived from an apparently normal child (GM05659) were obtained from the Institute for Medical Research, Camden, N.J. The cells were subcultured by trypsinization and used before 25 population doublings. Typically, 4×10^5 cells were seeded onto 100-mm (diameter) plastic petri dishes and allowed to grow in 10 ml of Dulbecco's modified Eagle's minimum essential medium containing 5.6 mM glucose, buffered in pH 7.4 with 24 mM sodium biocarbonate/25 mM Hepes and supplemented with 20% (v/v) calf serum which had been inactivated for 30 min at 56° C. The cells were incubated at 37° C. in a humidified atmosphere of 5% CO2 plus 95% air.
(§3) After a week, the medium was replaced with medium supplemented with 0.5% heat-inactivated diaylzed calf serum, and the incubation was continued for 72 h in the presence of minoxidil or one of its structural analogs. The compounds were dissolved in 95% ethanol, except minoxidil sulfate which was dissolved in acetone; the final solvent concentration was 1% (v/v). During the last 3 h of incubation, cells received 100 μM Na L-ascorbate to ensure complete hydroxylation of the polypeptide precursors of precollagen (Murad et al, J. Invest. Dermatol. 75:404 (1980)).
The medium was then removed and the cells were washed twice with a solution containing 0.14 M NaCl, 5 mM KCl, 0.3 mM Na2 PO4, and 0.4 mM KH2 PO4, adjusted to pH 7.4. […] The trypsinization was terminated with 2 vol of 20% serum-supplemented medium, and the cell number in an aliquot of the suspension was determined using a Coulter counter. […]
(§4) The protein content of cell extracts was determined by a dye-binding technique using Bio-Rad reagent and protein standard (Bradford, Anal. Biochem. 72:248 (1976)).

lysyl hydroxylase [3] = assay: Lysyl hydroxylase activity in extracts of treated human skin fibroblasts (Example 1, tritium-release assay); type: cell-based; details: cultured fibroblasts
Experimental: as §1
as §1, with “with 1% acetone containing various concentrations of minoxidil sulfate,” for “deoxyminoxidil”, “tritium release” for “tritium-release”
as §2, §3
The medium was then removed and the cells were washed twice with a solution containing 0.14 M NaCl, 5 mM KCl, 0.3 mM Na2 PO4, and 0.4 mM KH2 PO4, adjusted to pH 7.4. The cells were detached from the plates with a solution containing 0.05% trypsin, 0.54 mM EDTA, 5.5mM glucose, 6.90mM NaHCO3, […], and 5 mM KCl. The trypsinization was terminated with 2 vol of 20% serum-supplemented medium, and the cell number in an aliquot of the suspension was determined using a Coulter counter.
The detached cells were collected by centrifugation at 500g for 6 min at 4° C. washed twice by suspending in phosphate-buffered NaCl/KCl as above, and then centrifuged. The cell pellet was suspended in a medium (1 ml/5×10^6 cells) containing 0.2 M NaCl, 0.1 M glycine, 50 μM dithiothreitol, 20 mM Tris-HCl, buffer (pH 7.5), 0.1% Triton X-100, and 0.01% soybean trypsin inhibitor. The suspension was sonicated for 30 s using a Branson sonifier cell disrupter. The lysate was centrifuged at 27,000g for 1 h at 4° C., and the resulting supernatant was used for prolyl and lysyl hydroxylase assays (Murad and Pinnell, J. Biol. Chem. 262:11, 973 (1987)). The enzyme activities are based on a unit of soluble cell protein.
as §4
Note: Cultures of human skin fibroblasts grown to confluence were
incubated for 72 h in medium supplemented with 1% ethanol containing 1 mM
of the indicated compounds. Cells were then harvested, and the enzyme
activity in extracts of these cells was measured by a tritiumrelease
incubated for 72 h in medium supplemented with 1% ethanol containing 1 nM

[4] = test system: non-proliferating fibroblasts; assay: Cytotoxicity to non-proliferating fibroblasts (cell number per dish); type: cell-based; details: 5 mM, 72 hr
Source text: Certain aspects of the present invention are described in greater detail in the non-limiting Examples that follow. (See also Murad et al, Arch. Biochem. Biophys. 292:234 (1992)).

[5] = test system: Prolyl Hydroxylations in Human Skin Fibroblasts; assay: Hydroxylation of proline residues in type I procollagen (Hyp/Pro); type: cell-based; details: 1 mM; for Hyp/Pro: 72 hr; for activity at 1000 µM: Homo sapiens, Skin fibroblast, 72 hr (Table V), read-out: ratio of hydroxyproline to proline, % control value
Experimental: Culture of human skin fibroblasts derived from an apparently normal adult were grown to confluent densities in Dulbecco's modified Eagle's medium supplemented with 10% (v/v) fetal calf serum. Thereafter, the medium was replaced with medium supplemented with 0.5% dialyzed fetal calf serum. […] In some experiments, minoxodil was dissolved in 95% (v/v) ethanol; […]. Cultures treated with ethanol only served as the control.
(§5) During the last 6 hr of treatment, cultures were labeled with 50 μCi of L-[2,3-^3 H]proline (35 Ci/mmol) and 50 μCi of L[U-^14 C]lysine ([…]) in 4 ml of lysine-free medium supplemented with 100 μM ascorbic acid. At the end of the incubation period, the medium was removed and mixed with 1 mM each of EDTA, N-ethylmaleimide, and phenylmethylsulfonylfluoride, and the collagenous proteins were precipitated with 30% (NH4)2 SO4. The cell layer was scraped and extracted with 0.5 M acetic acid containing the protease inhibitors as above. The cell extract was neutralized, and the collagenous proteins were precipitated as above. The (NH4)2 SO4 precipitate from the medium and cell layer was separately dissolved in 0.1% SDS/10 mM Tris-HCl (pH 6.8), reduced with dithiothreitol, and analyzed by electrophoresis on 4% SDS-polyacrylamide gels. The bands corresponding to the proαl(I) and proα2(I) chains from the two fractions were pooled and hydrolyzed with 6 M HCl for 24 hr at 110° C. Proline, hydroxyproline, lysine, and hydroxylysine in the hydrolysate were separated by HPLC (Takimitsa et al, J. Dermatol. 16:37 (1989)), and their radioactivity was determined in a Beckman liquid scintillation counter. To isolate type I procollagen the precipitate from the medium and cell layer was separately dissolved in 25 mM Tris-HCl, pH 7.5, containing 2 M urea and 1 mM each of EDTA, N-ethylmaleimide, and phenylmethylsulfonylfluoride, then chromatographed on a DEAE-cellulose column (Freiberger et al, J. Invest. Dermatol. 75:425 (1980)). The procollagen isolated from the two fractions was pooled, hydrolyzed, and analyzed as above.

prolyl hydroxylase [6] = assay: Prolyl hydroxylase activity in fibroblasts treated with minoxidil and its hydroxy derivatives (Example 3); type: cell-based, human; details: for prolyl hydroxylase activity (in words) / Prolyl Hydroxylase Activity: 1 mM; for prolyl hydroxylase activity (in words): 72 hr
Experimental: (§6) Culture of human skin fibroblasts derived from an apparently normal adult were grown to confluent densities in Dulbecco's modified Eagle's medium supplemented with 10% (v/v) fetal calf serum. Thereafter, the medium was replaced with medium supplemented with 0.5% dialyzed fetal calf serum. The cultures were treated for 72 hr with 1 mM minoxidil, 3'- hydroxyminoxidil,or 4'-hydroxyminoxidil (Upjohn) dissolved in aqueous medium. In some experiments, minoxodil was dissolved in 95% (v/v) ethanol; the final concentration of minoxidil was 0.3 mM and that of ethanol was 0.3%. Cultures treated with ethanol only served as the control.
(§7) During the last 3 hr of treatment, cultures received 100 μM ascorbic acid. The enzyme activities in extracts of treated cells were measured by tritium-release assays described previously (Murad and Pinnell, J. Biol. Chem. 262:11,973 (1987)).

[7] = test system: Collagen Synthesis in Human Skin Fibroblasts; assay: Collagen synthesis in human skin fibroblasts; type: cell-based; details: 1 mM, 72 hr; mean ± SD of duplicate analysis of two cultures (Table VII)
Experimental: as §6, with “[…].” for “the final concentration of minoxidil was 0.3 mM and that of ethanol was 0.3%.”
During the last 6 hr of treatment, cultures were labeled with 20 μCi of L-[2,3-^3 H]proline in 1 ml of medium supplemented with 100 μM ascorbic acid. The amount of proline radioactivity incorporated into collagen in the medium and cells combined was measured after digestion with a bacterial collagenase, essentially as described previously (Freiberger et al, J. Invest. Dermatol. 75:425 (1980)).

human skin fibroblasts = assay: Fibroblast proliferation; type: cell-based; details: relative to minoxidil
Experimental: Cultures were seeded at a density of 100,000 cells per 35 mm-dish and allowed to attach and proliferate in the presence of 20% calf serum. Drug-treated cultures received 1 mM minoxidil or its hydroxy derivative on day 1 after seeding.

lysyl hydroxylase [8] = assay: Lysyl hydroxylase activity in fibroblasts treated with minoxidil and its hydroxy derivatives (Example 3); type: cell-based, human; details: for Fibroblast Lysyl Hydroxylase Activity: 48 hr
Experimental: Culture of human skin fibroblasts derived from an apparently normal adult were grown to confluent densities in Dulbecco's modified Eagle's medium supplemented with 10% (v/v) fetal calf serum. Thereafter, the medium was replaced with medium supplemented with 0.5% dialyzed fetal calf serum. […] In some experiments, minoxodil was dissolved in 95% (v/v) ethanol; the final concentration of minoxidil was 0.3 mM and that of ethanol was 0.3%. Cultures treated with ethanol only served as the control.
as §7

[9] = test system: Lysyl Hydroxylations in Human Skin Fibroblasts; assay: Hydroxylation of lysine residues in type I procollagen (Hyl/Lys); type: cell-based; details: 1 mM; for Hyl/Lys: 72 hr; for activity at 1000 µM: Homo sapiens, Skin fibroblast, 72 hr (Table V), read-out: ratio of hydroxylysine to lysine, percentage of control value
Experimental: as §6, with “[…].” for “the final concentration of minoxidil was 0.3 mM and that of ethanol was 0.3%.”
as §5

[10] = in vivo; cited from earlier work
[11] = type I procollagen chains isolated by gel electrophoresis, mean ± range of two experiments (description table)
[12] = 1 mM, 72 hr (description table)

Row | effect on prolyl hydroxylase (in words) (prolyl hydroxylase [6]) | prolyl hydroxylase activity (in words) (prolyl hydroxylase [6]) | Compound | 10^-6 × No. of Cells/Dish [4] | Hyp/Pro ([5]; gel electrophoresis (Table V)) | Hyp/Pro [5, 11] | activity at 1000 µM [5] | Prolyl Hydroxylase Activity (prolyl hydroxylase [6]; 72 hr (Table VI)) | Prolyl Hydroxylase Activity (prolyl hydroxylase [6]; 72 hr (description table)) | % Collagen Synthesized [7] | suppression of fibroblast proliferation (in words) (human skin fibroblasts) | suppression of lysyl hydroxylase (in words) (lysyl hydroxylase [8]) | Fibroblast Lysyl Hydroxylase Activity (lysyl hydroxylase [8]; 1 mM) | Lysyl Hydroxylase Activity (lysyl hydroxylase [8]; 1 mM, 72 hr (Table VI)) | Lysyl Hydroxylase Activity (lysyl hydroxylase [8]; [12]) | Fibroblast Lysyl Hydroxylase Activity (lysyl hydroxylase [8]; 5 mM) | Hyl/Lys ([9]; gel electrophoresis (Table V)) | Hyl/Lys [9, 11] | activity at 1000 µM [9] | antihypertensive / hypotensive activity (in words) [10] | also measured
1 |  |  | Nc1cc(N2CCCCC2)nc(N)n1 [Deoxyminoxidil] |  |  |  |  |  |  |  |  |  |  |  |  |  |  |  |  |  | direct inhibition of enzyme activity (in words) [1]: no evidence for direct inhibition of enzyme activity; IC50 (prolyl hydroxylase [2]; 72 h (FIG. 2), read-out: concentration required for 50% effect (prolyl hydroxylase)): 260 µM; effect on prolyl hydroxylase activity (in words) (prolyl hydroxylase [2]; 72 h, Example 1): suppressed prolyl hydroxylase activity in a dose-related manner; IC50 (lysyl hydroxylase [3]; 72 h (FIG. 2), read-out: concentration required for 50% inhibition (lysyl hydroxylase)): 118 µM; effect on lysyl hydroxylase activity (in words) (lysyl hydroxylase [3]; 72 h, Example 1): suppressed lysyl hydroxylase activity in a manner remarkably similar to that observed with minoxidil
2 | without affecting prolyl hydroxylase | remained unchanged | Nc1cc(N2CCCC(O)C2)nc(N)[n+]1[O-] (centres unmarked) [3'-Hydroxyminoxidil] | 1.39 10^-6 × No. of Cells/Dish | 0.95 ± 0.02 | 0.95 ± 0.02 | 103% | 30512 cpm ^3 H2 O/mg protein | 30512 cpm^3 H2 O/mg protein | 9.0 ± 0.9% | as active as minoxidil in suppressing fibroblast proliferation | inhibitory potential comparable to that of minoxidil; also recorded: as active as minoxidil in suppressing fibroblast proliferation and lysyl hydroxylase activity | 401 cpm^3 H2 O/mg protein | 263 cpm ^3 H2 O/mg protein | 263 cpm^3 H2 O/mg protein | 383 cpm^3 H2 O/mg protein | 0.07 ± 0.01 | 0.07 ± 0.01 | 32% | Neither metabolite exhibits the marked hypotensive activity associated with minoxidil; also recorded: inactive as antihypertensive agents | Lysyl hydroxylase activity, % of control level (lysyl hydroxylase [8]; 1 mM, 72 hr): 22%
3 | without affecting prolyl hydroxylase | remained unchanged | Nc1cc(N2CCC(O)CC2)nc(N)[n+]1[O-] [4'-Hydroxyminoxidil] | 1.42 10^-6 × No. of Cells/Dish | 1.12 ± 0.07 | 1.12 ± 0.07 | 122% | 33500 cpm ^3 H2 O/mg protein | 33500 cpm^3 H2 O/mg protein | 8.2 ± 0.6% | as active as minoxidil in suppressing fibroblast proliferation | inhibitory potential comparable to that of minoxidil; also recorded: as active as minoxidil in suppressing fibroblast proliferation and lysyl hydroxylase activity | 415 cpm^3 H2 O/mg protein | 239 cpm ^3 H2 O/mg protein | 293 cpm^3 H2 O/mg protein | 494 cpm^3 H2 O/mg protein | 0.09 ± 0.01 | 0.09 ± 0.01 | 41% | Neither metabolite exhibits the marked hypotensive activity associated with minoxidil; also recorded: inactive as antihypertensive agents | 
